This note sets out measurements from ChEMBL document CHEMBL1136397, “5-Aryl thiazolidine-2,4-diones as selective PPARgamma agonists” (Bioorg Med Chem Lett, 2003).

A short description of series [1]: In vivo triglyceride correction was determined in male db/db mice after administration at 10 mg/kg. The series is classed as functional, Mus musculus.
Series [2] is described as follows: Plasma clearance was determined in rat after intravenous administration (0.5 mg/kg). The class given is ADME, organism-based. The following applies: read-out: Clp.
Series [3] in a line: Half-life was determined in rat after intravenous administration (0.5 mg/kg). The following applies: in vivo. The series is classed as ADME, organism-based.
For series [4], the target named is T1, Peroxisome proliferator-activated receptor alpha (Homo sapiens, UniProt Q07869).
T1 sequence (Q07869 whole entry): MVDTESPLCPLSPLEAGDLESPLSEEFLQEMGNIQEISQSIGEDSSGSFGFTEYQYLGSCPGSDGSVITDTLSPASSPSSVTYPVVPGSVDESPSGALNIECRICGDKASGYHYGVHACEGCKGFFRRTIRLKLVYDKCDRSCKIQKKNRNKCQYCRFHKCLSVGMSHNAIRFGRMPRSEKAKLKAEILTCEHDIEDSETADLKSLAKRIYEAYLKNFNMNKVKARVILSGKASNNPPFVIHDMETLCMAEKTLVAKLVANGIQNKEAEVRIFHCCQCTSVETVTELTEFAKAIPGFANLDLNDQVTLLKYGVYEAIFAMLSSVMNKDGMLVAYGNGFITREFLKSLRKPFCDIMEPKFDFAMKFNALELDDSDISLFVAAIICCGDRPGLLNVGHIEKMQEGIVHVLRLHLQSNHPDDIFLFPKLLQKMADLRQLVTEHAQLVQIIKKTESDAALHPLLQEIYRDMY
The experiment in a line: In vitro agonist activity tested for transactivation in human PPAR alpha-Gal4 chimeric COS-1 cells. The series is classed as functional, cell-based.

Series [5] concerns the target T2, Peroxisome proliferator-activated receptor delta (Homo sapiens, UniProt Q03181).
T2 sequence (Q03181 whole entry): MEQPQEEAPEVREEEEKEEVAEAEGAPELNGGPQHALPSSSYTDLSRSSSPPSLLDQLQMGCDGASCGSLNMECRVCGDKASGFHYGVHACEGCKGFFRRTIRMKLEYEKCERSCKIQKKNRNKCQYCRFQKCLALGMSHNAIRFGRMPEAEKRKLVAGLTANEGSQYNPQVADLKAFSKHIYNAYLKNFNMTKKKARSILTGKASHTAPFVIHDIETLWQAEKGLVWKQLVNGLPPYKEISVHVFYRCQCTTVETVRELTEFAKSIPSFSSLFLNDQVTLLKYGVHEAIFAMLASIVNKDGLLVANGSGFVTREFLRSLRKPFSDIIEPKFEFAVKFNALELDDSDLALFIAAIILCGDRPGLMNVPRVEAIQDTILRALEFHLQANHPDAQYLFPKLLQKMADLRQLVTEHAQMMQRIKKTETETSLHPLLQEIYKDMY
Description: In vitro binding affinity against human PPAR delta (peroxisome proliferator-activated delta receptor)

Series [6] can be described thus: Oral bioavailability in rat (dose 2 mg/kg). The series is classed as ADME, organism-based. The following applies: in vivo.
For series [7], the system named is Rattus norvegicus. As to the kind of experiment: Dose-normalized AUC was determined in rat after peroral administration (2 mg/kg). The class given is ADME, organism-based. The following applies: in vivo, po.
The target in series [8] is T3, Peroxisome proliferator-activated receptor gamma (Homo sapiens, UniProt P37231).
T3 sequence (P37231 whole entry): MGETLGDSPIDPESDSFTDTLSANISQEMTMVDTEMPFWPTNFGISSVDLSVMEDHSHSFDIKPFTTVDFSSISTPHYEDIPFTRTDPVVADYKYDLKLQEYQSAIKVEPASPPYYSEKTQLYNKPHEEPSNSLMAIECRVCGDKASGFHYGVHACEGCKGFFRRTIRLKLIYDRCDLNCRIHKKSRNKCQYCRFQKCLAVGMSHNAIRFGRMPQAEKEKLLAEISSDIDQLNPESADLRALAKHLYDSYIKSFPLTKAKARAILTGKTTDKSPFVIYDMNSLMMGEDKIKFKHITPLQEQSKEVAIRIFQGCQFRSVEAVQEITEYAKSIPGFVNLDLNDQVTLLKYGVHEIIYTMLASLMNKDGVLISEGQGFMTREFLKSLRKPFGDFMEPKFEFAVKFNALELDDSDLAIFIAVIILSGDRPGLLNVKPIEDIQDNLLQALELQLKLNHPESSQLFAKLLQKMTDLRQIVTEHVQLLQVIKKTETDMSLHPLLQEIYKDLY
Description: In vitro agonist activity tested for transactivation in human PPAR gamma-Gal4 chimeric COS-1 cells

A short description of series [9]: In vivo glucose correction was determined in male db/db mice after administration at 10 mg/kg. The series is classed as functional, Mus musculus.
Series [10] deals with T2, Peroxisome proliferator-activated receptor delta. This is another data set of the same source.
Description: In vitro agonist activity tested for transactivation in human PPAR delta-GAL4 chimeric COS-1 cells
Series [11] has as its target T3, Peroxisome proliferator-activated receptor gamma. This is another data set of the same source.
Description: In vitro binding affinity against human PPAR gamma (peroxisome proliferator-activated gamma receptor)
Series [12] concerns the target T1, Peroxisome proliferator-activated receptor alpha. As to the kind of experiment: In vitro binding affinity against human PPAR alpha (peroxisome proliferator-activated alpha receptor).
In series [13] the test system is Mus musculus. The experiment in a line: In vivo triglyceride correction was determined in male db/db mice after administration at 5 mg/kg. The class given is functional.
Series [14] has as its system Mus musculus. The experiment in a line: In vivo glucose correction was determined in male db/db mice after administration at 5 mg/kg. The class given is functional.

In turn, `CCCc1cc(Oc2ccccc2)ccc1OCCCOc1ccc(C2SC(=O)NC2=O)cc1F` (configuration not stated) came in with a Triglyceride correction in series [1] of 50%. For the same compound, the clearance in [2] worked out at 2.9 mL/min/kg. This compound had a half-life in series [3] of 1.7 h. Moreover, the concentration for a half-maximal effect (EC50) in series [4] is over 3 µM; in [8], 0.3 µM; in [10], over 3 µM. Half-maximal inhibition in [5] (IC50) was put at 2 µM. Further, the bioavailability in series [6] is 63%. This compound yielded an AUC in [7] of 7.43 µM·h. For the same compound, the Glucose correction in series [9] stood at 43%.
As to `CCCc1cc(Oc2ccccc2)ccc1OCCCOc1ccc(C2SC(=O)NC2=O)cc1CCC` (configuration not stated), the half-maximal effective concentration (EC50) in series [4] is over 3 µM; in [8] it was 0.2 µM; in [10] it was 3 µM. Besides, the half-maximal inhibitory concentration (IC50) is 0.12 µM in series [11], 1 µM in series [5] and over 50 µM in [12].
`CC(C)Cc1cc(Oc2ccccc2)ccc1OCCCOc1ccc(C2SC(=O)NC2=O)cc1` (configuration not stated): the concentration for half-maximal inhibition (IC50) in series [5] came out at 0.16 µM; in [12] it was 0.34 µM.
Turning to `O=C1NC(=O)C(c2ccc(OCCCOc3ccc(Oc4ccccc4)cc3)cc2)S1` (configuration not stated), the IC50 in series [11] was over 15 µM; in series [5] it was over 50 µM; in [12], over 50 µM.
Regarding `CCCc1cc(Oc2ccccc2)ccc1OCCCOc1ccc(C2SC(=O)NC2=O)cc1` (configuration not stated), the Triglyceride correction in [1] is 74%. For the same compound, the clearance in series [2] was found to be 2.3 mL/min/kg. The half-life in series [3] is 2.3 h. Moreover, the concentration giving a half-maximal response (EC50) in series [4] and in series [10] was over 3 µM each time. Moreover, the IC50 is over 10 µM in series [5] and 50 µM in [12]. The compound further showed a bioavailability in series [6] of 89%. Further, the AUC in series [7] worked out at 13.8 µM·h. Besides, the Glucose correction in series [9] was found to be 77%.
For the compound `CCCc1cc(Oc2ccc(NS(C)(=O)=O)cc2)ccc1OCCCOc1ccc(C2SC(=O)NC2=O)cc1` (configuration not stated), the IC50 in series [11] is 2 µM; in [5], over 50 µM; in series [12] it was over 50 µM.
Regarding `CCCc1cc(Oc2ccc(C(F)(F)F)cc2)ccc1OCCCOc1ccc(C2SC(=O)NC2=O)cc1` (configuration not stated), the IC50 in series [11] is 1.8 µM; in series [5], over 50 µM; in series [12] it was over 50 µM.
As for `CCCc1cc(Oc2ccccc2)ccc1OCCCOc1ccc(C2SC(=O)NC2=O)cc1OC` (configuration not stated), the EC50 is over 3 µM in series [4], 0.4 µM in series [8] and over 3 µM in [10]. In addition, the results for the IC50 in series [11], in series [5] and in [12] were 1 µM, over 10 µM and over 50 µM, respectively.
For the compound `CCCc1cc(Oc2ccc(-c3ccccc3)cc2)ccc1OCCCOc1ccc(C2SC(=O)NC2=O)cc1` (configuration not stated), the clearance in [2] was 2.8 mL/min/kg. The same compound had a half-life in [3] of 2.2 h. Besides, the EC50 in series [4] is over 3 µM; in [8], 0.02 µM; in [10], over 3 µM. In addition, the values for the IC50 in series [11], in series [5] and in series [12] were 0.13 µM, over 50 µM and over 50 µM, respectively. In addition, the bioavailability in series [6] was determined as 6%. Also, in series [7], the AUC is 0.7 µM·h.
Take `CCCc1cc(Oc2ccc(NS(=O)(=O)c3ccc(C)cc3)cc2)ccc1OCCCOc1ccc(C2SC(=O)NC2=O)cc1` (configuration not stated): the EC50 in series [4] was over 3 µM; in series [8], 0.5 µM; in series [10] it was over 3 µM. In addition, the values for the IC50 in series [11], in [5] and in series [12] were 5.7 µM, over 50 µM and over 50 µM, respectively.
`CCCc1cc(Oc2ccc(F)cc2)ccc1OCCCOc1ccc(C2SC(=O)NC2=O)cc1` (configuration not stated) displayed a Triglyceride correction in series [1] of 71%. The clearance in series [2] is 3.6 mL/min/kg. The compound further gave a half-life in series [3] of 2.1 h. The concentration giving a half-maximal response (EC50) in series [4] and in [10] was over 50 µM throughout. Moreover, the IC50 in series [5] and in series [12] was over 50 µM in each case. For the same compound, in [6], the bioavailability came to 63%. This compound yielded an AUC in series [7] of 5.97 µM·h. The Glucose correction in series [9] is reported as 78%.
Take `CCCc1cc(Oc2ccccc2)ccc1OCCCOc1ccc(C2SC(=O)NC2=O)cc1Cl` (configuration not stated): the EC50 in [4] was over 3 µM; in series [8], 0.7 µM; in [10] it was over 3 µM. Also, the IC50 was 0.43 µM in series [11], 0.88 µM in [5] and over 50 µM in series [12].
For `CCCc1cc(Oc2ccc(Cl)cc2)ccc1OCCCOc1ccc(C2SC(=O)NC2=O)cc1` (configuration not stated), the Triglyceride correction in series [1] is 80%. Moreover, in series [2], the clearance turned out to be 2.9 mL/min/kg. Besides, in series [3], the half-life was 5.4 h. The values for the EC50 in [4], in series [8] and in series [10] were 3 µM, 0.08 µM and over 3 µM, respectively. In addition, the IC50 in [11] was 2 µM; in series [5] it was over 50 µM; in series [12], over 50 µM. Further, the bioavailability in series [6] was found to be 58%. Besides, the AUC in [7] came to 6.7 µM·h. This compound also came in with a Glucose correction in [9] of 86%.
In the case of `CCCc1cc(Oc2ccccc2)ccc1OCCCOc1ccc(C2SC(=O)NC2=O)cc1C` (configuration not stated), the values for the EC50 in series [4], in series [8] and in series [10] were over 3 µM, 0.1 µM and over 3 µM, respectively. In addition, the concentration for half-maximal inhibition (IC50) in series [11] was 6.7 µM; in [5] it was 6 µM; in [12] it was over 50 µM.
For the compound `CCCc1cc(Oc2ccc(OC)cc2)ccc1OCCCOc1ccc(C2SC(=O)NC2=O)cc1` (configuration not stated), the Triglyceride correction in [1] was determined as 67%. Besides, in series [2], the clearance was 1.1 mL/min/kg. In [3], this compound gave a half-life of 2.8 h. Moreover, the results for the EC50 in series [4] and in series [10] were over 10 µM and over 3 µM, respectively. Further, the results for the IC50 in series [11], in [5] and in series [12] were 0.46 µM, over 50 µM and over 50 µM, respectively. In series [6], this compound displayed a bioavailability of 39%. Besides, the AUC in series [7] was found to be 11.7 µM·h. The compound further returned a Glucose correction in series [9] of 67%.
With `CCCc1cc(Oc2ccc(C)cc2)ccc1OCCCOc1ccc(C2SC(=O)NC2=O)cc1` (configuration not stated), the IC50 in series [11] was 2.6 µM; in series [5], over 50 µM; in series [12], over 50 µM.
As for `CCCc1cc(Oc2ccc(C3CCCC3)cc2)ccc1OCCCOc1ccc(C2SC(=O)NC2=O)cc1` (configuration not stated), the IC50 in [11] is 0.18 µM; in series [5], over 50 µM; in [12], over 50 µM.
`CCCc1cc(Oc2ccccc2)ccc1OCCCCOc1ccc(C2SC(=O)NC2=O)cc1` (configuration not stated): the EC50 in series [4] and in series [10] was over 3 µM each time. Moreover, the values for the IC50 in series [11], in series [5] and in [12] were 3 µM, over 10 µM and over 50 µM, respectively.
`CN(CCOc1ccc(CC2SC(=O)NC2=O)cc1)c1ccccn1` (configuration not stated) [ROSIGLITAZONE]: in [2], the clearance was determined as 2.7 mL/min/kg. This compound gave a half-life in series [3] of 1.2 h. The same compound registered a Triglyceride correction in series [13] of 52%. In series [6], this compound registered a bioavailability of 85%. For the same compound, the Glucose correction in series [14] turned out to be 46%. Besides, the AUC in series [7] came to 16.4 µM·h.
Regarding `CCCc1cc(Oc2ccc(CC(C)C)cc2)ccc1OCCCOc1ccc(C2SC(=O)NC2=O)cc1` (configuration not stated), the results for the EC50 in series [4], in series [8] and in series [10] were over 3 µM, 0.03 µM and over 3 µM, respectively. Further, the IC50 in [11] was 0.13 µM; in series [5], over 50 µM; in series [12], over 50 µM.
